Measurements reported in doi:10.1101/2021.04.08.439011v1 (biorxiv, 2021).
Read-outs that look alike come from different tables or passages of the source.

Key:
[1] = molecular target: MEK1 (Homo sapiens, UniProt Q02750); settings: 1 µM; binder
[2] = molecular target: PKMYT1 (Homo sapiens, UniProt Q99640); settings: 1 µM; binder
[3] = molecular target: INSR (Homo sapiens, UniProt P06213); settings: 1 µM; binder
[4] = molecular target: JNK2 (Homo sapiens, UniProt P45984); settings: 1 µM; binder
[5] = molecular target: PDGFRA (Homo sapiens, UniProt P16234); settings: 1 µM; binder
[6] = molecular target: ROCK2 (Homo sapiens, UniProt O75116); settings: 1 µM; binder
[7] = molecular target: PIP4K2C (Homo sapiens, UniProt Q8TBX8); settings: 1 µM; binder
[8] = molecular target: ACVR1 (Homo sapiens, UniProt Q04771); settings: 1 µM; binder
[9] = molecular target: MAP3K4 (Homo sapiens, UniProt Q9Y6R4); settings: 1 µM; binder
[10] = molecular target: ABL1(F317I) (Homo sapiens, UniProt P00519, F317I); settings: 1 µM, binder
[11] = molecular target: PKN2 (Homo sapiens, UniProt Q16513); settings: 1 µM; binder
[12] = molecular target: MEK6 (Homo sapiens, UniProt P52564); settings: 1 µM; binder
[13] = molecular target: CSK (Homo sapiens, UniProt P41240); settings: 1 µM; binder
[14] = molecular target: DCAMKL3 (Homo sapiens, UniProt Q9C098); settings: 1 µM; binder
[15] = molecular target: EPHB2 (Homo sapiens, UniProt P29323); settings: 1 µM; binder
[16] = molecular target: EGFR(L858R) (Homo sapiens, UniProt P00533, L858R); settings: 1 µM; binder
[17] = molecular target: PRKD1 (Homo sapiens, UniProt Q15139); settings: 1 µM; binder
[18] = molecular target: YANK1 (Homo sapiens, UniProt Q8WU08); settings: 1 µM; binder
[19] = molecular target: DMPK (Homo sapiens, UniProt Q09013); settings: 1 µM; binder
[20] = molecular target: DDR1 (Homo sapiens, UniProt Q08345); settings: 1 µM; binder
[21] = molecular target: YANK3 (Homo sapiens, UniProt Q86UX6); settings: 1 µM; binder
[22] = molecular target: CAMKK1 (Homo sapiens, UniProt Q8N5S9); settings: 1 µM; binder
[23] = molecular target: ASK2 (Homo sapiens, UniProt O95382); settings: 1 µM; binder
[24] = molecular target: PKN1 (Homo sapiens, UniProt Q16512); settings: 1 µM; binder
[25] = molecular target: MAP3K1 (Homo sapiens, UniProt Q13233); settings: 1 µM; binder
[26] = molecular target: BRSK1 (Homo sapiens, UniProt Q8TDC3); settings: 1 µM; binder
[27] = molecular target: SGK2 (Homo sapiens, UniProt Q9HBY8); settings: 1 µM; binder
[28] = molecular target: PYK2 (Homo sapiens, UniProt Q14289); settings: 1 µM; binder
[29] = molecular target: CAMK1G (Homo sapiens, UniProt Q96NX5); settings: 1 µM; binder
[30] = molecular target: TNK2 (Homo sapiens, UniProt Q07912); settings: 1 µM; binder

Chain of ABL1(F317I) (P00519 whole entry F317I): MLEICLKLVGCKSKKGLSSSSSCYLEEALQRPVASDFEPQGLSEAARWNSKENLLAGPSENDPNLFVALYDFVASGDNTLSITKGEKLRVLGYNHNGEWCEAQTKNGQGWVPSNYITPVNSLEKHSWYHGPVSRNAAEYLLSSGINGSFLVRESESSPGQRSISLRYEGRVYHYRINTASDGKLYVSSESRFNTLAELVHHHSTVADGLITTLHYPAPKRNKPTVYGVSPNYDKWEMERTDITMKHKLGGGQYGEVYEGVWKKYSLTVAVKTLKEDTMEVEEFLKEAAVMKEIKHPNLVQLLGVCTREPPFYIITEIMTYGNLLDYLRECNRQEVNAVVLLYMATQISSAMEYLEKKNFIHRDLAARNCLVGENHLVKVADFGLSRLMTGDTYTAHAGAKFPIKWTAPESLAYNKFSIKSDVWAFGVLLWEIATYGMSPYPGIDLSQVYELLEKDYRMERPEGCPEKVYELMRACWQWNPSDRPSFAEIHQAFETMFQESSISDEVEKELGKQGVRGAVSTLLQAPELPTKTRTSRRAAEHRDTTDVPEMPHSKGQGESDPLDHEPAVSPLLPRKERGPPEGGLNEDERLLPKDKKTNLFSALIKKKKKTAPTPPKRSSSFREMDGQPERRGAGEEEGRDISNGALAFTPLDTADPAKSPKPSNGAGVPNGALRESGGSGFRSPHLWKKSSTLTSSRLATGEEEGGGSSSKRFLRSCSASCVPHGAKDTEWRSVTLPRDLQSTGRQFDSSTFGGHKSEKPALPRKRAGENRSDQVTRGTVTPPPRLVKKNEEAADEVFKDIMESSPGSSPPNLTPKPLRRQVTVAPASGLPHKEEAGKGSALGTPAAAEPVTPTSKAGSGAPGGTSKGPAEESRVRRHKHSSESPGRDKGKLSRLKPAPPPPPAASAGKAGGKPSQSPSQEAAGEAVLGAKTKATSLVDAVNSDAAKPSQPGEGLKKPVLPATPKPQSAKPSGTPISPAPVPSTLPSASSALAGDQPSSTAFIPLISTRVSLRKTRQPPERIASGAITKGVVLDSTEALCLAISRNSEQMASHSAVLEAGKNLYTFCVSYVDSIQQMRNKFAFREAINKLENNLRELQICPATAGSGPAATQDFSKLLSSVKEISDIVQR
Chain of DMPK (Q09013 whole entry): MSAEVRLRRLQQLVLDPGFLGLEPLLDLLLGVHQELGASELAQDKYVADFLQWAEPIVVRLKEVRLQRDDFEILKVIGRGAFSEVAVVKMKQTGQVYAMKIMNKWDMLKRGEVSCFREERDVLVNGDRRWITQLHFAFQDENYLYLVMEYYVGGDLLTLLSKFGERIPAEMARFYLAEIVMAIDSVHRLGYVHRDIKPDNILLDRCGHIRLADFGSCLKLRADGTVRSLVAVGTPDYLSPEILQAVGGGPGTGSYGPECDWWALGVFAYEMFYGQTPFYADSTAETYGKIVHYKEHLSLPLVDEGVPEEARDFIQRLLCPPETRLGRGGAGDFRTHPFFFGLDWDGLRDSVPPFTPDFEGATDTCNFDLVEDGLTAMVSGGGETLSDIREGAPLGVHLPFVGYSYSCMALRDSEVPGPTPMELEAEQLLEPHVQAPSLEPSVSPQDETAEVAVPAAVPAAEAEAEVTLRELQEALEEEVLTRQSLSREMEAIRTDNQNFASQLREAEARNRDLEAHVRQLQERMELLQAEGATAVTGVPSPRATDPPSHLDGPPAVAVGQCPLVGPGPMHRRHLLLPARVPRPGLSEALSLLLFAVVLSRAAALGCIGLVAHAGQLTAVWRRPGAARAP
Chain of PIP4K2C (Q8TBX8 whole entry): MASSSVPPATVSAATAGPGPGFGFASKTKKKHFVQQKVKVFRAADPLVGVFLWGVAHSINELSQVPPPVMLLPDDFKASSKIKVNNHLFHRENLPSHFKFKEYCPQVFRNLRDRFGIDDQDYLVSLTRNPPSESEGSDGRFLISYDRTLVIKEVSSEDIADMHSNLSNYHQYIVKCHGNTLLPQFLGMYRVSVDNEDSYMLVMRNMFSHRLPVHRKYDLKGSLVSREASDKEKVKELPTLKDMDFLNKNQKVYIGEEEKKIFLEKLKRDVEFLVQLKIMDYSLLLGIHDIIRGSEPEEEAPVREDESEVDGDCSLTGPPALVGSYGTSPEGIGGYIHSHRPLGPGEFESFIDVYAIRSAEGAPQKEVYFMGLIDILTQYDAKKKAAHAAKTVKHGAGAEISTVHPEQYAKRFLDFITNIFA
Chain of YANK1 (Q8WU08 whole entry): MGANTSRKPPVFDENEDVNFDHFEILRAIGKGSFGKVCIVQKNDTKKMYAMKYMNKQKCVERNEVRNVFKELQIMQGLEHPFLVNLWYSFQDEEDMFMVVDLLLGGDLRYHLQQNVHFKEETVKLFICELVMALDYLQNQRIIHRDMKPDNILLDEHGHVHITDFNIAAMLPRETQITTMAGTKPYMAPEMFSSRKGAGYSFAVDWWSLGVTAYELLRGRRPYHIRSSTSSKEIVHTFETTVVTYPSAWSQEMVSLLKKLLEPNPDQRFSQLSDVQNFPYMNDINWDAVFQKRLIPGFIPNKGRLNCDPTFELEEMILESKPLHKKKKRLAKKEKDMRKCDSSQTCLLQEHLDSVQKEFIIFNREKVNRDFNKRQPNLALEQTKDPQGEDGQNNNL
Chain of MEK1 (Q02750 whole entry): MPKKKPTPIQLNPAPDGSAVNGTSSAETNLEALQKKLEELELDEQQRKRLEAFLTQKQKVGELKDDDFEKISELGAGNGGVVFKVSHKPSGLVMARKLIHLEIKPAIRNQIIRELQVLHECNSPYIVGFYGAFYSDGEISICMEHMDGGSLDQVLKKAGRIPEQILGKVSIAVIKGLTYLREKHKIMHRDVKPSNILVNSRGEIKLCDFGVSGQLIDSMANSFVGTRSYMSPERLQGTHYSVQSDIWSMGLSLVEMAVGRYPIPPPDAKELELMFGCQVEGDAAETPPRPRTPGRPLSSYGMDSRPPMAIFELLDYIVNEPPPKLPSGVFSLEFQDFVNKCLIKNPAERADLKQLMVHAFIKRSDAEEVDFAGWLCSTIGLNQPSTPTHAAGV
Chain of EPHB2 (P29323 whole entry): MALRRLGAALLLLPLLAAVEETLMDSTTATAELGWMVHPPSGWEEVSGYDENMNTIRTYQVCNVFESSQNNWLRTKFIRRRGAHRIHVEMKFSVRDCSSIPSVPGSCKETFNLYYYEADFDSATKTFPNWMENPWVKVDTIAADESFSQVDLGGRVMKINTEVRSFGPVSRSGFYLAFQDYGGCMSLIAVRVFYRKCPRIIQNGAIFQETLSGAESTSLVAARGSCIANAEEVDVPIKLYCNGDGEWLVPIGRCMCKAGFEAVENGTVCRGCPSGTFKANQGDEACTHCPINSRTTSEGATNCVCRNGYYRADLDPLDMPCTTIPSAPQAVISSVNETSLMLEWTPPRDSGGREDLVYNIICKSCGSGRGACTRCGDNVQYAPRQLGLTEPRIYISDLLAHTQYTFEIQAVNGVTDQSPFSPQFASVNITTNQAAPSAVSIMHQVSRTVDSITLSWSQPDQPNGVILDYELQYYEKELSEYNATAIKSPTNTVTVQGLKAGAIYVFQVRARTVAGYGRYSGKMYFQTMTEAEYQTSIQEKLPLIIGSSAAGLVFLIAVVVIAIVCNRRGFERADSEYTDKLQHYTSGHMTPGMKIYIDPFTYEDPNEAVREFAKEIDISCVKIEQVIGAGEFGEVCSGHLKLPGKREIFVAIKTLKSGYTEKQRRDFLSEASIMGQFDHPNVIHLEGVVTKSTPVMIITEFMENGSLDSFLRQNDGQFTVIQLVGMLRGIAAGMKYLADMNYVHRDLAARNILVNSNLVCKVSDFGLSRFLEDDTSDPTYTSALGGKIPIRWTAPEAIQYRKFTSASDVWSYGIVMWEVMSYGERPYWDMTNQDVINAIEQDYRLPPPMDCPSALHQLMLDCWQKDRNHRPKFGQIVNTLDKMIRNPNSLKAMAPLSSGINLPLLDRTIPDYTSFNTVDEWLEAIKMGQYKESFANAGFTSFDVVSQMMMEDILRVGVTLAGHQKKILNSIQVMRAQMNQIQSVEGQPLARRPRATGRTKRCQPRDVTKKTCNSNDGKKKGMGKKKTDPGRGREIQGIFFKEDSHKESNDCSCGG
Chain of CAMKK1 (Q8N5S9 whole entry): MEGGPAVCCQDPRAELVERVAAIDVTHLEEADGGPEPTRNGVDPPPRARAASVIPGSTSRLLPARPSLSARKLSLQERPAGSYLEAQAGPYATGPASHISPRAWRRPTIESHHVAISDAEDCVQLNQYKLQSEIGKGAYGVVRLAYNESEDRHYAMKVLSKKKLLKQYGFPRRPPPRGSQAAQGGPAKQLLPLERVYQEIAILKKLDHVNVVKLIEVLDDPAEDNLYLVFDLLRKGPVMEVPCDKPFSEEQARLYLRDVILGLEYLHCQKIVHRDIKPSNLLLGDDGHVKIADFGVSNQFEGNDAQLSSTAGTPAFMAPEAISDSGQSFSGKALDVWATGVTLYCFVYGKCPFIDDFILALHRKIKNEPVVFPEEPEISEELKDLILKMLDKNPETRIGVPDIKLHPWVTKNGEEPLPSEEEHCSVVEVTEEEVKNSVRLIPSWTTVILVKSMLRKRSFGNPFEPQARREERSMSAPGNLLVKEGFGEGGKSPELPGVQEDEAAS
Chain of SGK2 (Q9HBY8 whole entry): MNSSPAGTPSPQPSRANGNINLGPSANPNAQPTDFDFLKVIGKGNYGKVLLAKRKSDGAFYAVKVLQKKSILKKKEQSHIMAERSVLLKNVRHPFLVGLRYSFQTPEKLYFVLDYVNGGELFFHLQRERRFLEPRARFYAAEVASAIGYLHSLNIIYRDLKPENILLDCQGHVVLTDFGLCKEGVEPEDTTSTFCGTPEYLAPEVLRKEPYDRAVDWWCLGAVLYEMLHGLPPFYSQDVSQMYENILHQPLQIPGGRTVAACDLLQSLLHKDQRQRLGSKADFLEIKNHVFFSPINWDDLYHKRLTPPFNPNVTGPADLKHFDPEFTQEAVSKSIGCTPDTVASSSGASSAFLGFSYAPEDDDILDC

## CNc1ncc2cc(-c3ccc(-c4cccc(C)n4)cc3Cl)c(=O)n(C[C@H]3OC[C@H](N)CO3)c2n1 [compound 6, G-5555]
[1]
  Percent Control: 1%
[2]
  Percent Control: 100%
[3]
  Percent Control: 97%
[4]
  Percent Control: 75%
[5]
  Percent Control: 96%
[6]
  Percent Control: 90%
[7]
  Percent Control: 26%
[8]
  Percent Control: 100%
[9]
  Percent Control: 52%
[10]; nonphosphorylated
  Percent Control: 100%
[10]; phosphorylated
  Percent Control: 96%
[11]
  Percent Control: 100%
[12]
  Percent Control: 30%
[13]
  Percent Control: 85%
[14]
  Percent Control: 0.5%
[15]
  Percent Control: 79%
[16]
  Percent Control: 85%
[17]
  Percent Control: 17%
[18]
  Percent Control: 3.7%
[19]
  Percent Control: 100%
[20]
  Percent Control: 53%
[21]
  Percent Control: 79%
[22]
  Percent Control: 100%
[23]
  Percent Control: 70%
[24]
  Percent Control: 92%
[25]
  Percent Control: 98%
[26]
  Percent Control: 100%
[27]
  Percent Control: 100%
[28]
  Percent Control: 100%
[29]
  Percent Control: 99%
[30]
  Percent Control: 86%
